In ChEMBL document CHEMBL1143749, “A new therapeutic approach in Alzheimer disease: some novel pyrazole derivatives as dual MAO-B inhibitors and antiinflammatory analgesics” (Bioorg Med Chem, 2007):

Experiments:
[1] = biological target: T1, Amine oxidase [flavin-containing] A (Rattus norvegicus, UniProt P21396); assay: Inhibition of rat liver MAOA after 60 mins pre-incubation
T1 sequence (P21396 whole entry): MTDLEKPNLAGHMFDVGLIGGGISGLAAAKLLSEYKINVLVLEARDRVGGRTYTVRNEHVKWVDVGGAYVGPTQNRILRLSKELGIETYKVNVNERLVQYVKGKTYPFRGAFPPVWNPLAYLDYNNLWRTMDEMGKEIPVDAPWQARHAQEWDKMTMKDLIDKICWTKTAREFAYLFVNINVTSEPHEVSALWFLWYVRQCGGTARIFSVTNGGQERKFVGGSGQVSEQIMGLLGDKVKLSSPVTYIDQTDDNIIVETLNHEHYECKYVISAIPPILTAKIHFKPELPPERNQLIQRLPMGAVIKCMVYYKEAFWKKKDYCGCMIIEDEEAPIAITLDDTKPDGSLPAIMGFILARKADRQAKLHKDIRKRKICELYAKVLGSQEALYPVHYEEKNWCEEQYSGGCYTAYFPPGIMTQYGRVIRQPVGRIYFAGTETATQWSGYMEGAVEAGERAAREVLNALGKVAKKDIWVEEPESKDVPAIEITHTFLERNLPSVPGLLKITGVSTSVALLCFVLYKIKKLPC

[2] = biological target: T2, Amine oxidase [flavin-containing] B (Rattus norvegicus, UniProt P19643); assay: Inhibition of rat liver MAOB after 60 mins pre-incubation
T2 sequence (P19643 whole entry): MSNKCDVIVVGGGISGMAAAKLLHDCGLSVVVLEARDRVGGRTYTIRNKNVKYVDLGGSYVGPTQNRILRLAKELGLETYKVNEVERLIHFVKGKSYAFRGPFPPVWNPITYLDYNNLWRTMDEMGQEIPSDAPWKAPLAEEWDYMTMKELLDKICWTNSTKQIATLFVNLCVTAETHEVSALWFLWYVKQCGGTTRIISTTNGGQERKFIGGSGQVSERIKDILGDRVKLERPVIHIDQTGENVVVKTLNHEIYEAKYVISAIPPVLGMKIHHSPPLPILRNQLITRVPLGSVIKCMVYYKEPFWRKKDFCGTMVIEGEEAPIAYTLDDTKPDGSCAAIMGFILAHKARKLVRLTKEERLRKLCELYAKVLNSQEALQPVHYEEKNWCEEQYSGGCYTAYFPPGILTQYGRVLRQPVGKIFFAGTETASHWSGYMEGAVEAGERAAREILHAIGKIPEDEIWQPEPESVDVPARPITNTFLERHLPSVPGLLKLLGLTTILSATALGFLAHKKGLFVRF

[3] = biological target: T1, Amine oxidase [flavin-containing] A; assay: Inhibition of rat liver MAOA
Mus musculus [4] = assay: Analgesic activity against p-Benzoquinone-induced writhings in Swiss Albino mouse assessed as number writhings at 100 mg/kg, po; format: functional
Mus musculus [5] = assay: Inhibition of p-Benzoquinone-induced writhings in Swiss Albino mouse at 100 mg/kg, po relative to control; format: functional; conditions: for inhibition in vivo at 100 mg/kg: Mus musculus, Swiss Albino, po
Mus musculus [6] = assay: Inhibition of carrageenan-induced hind paw oedema in Swiss Albino mouse at 100 mg/kg, po after 180 mins relative to control; format: functional; conditions: for inhibition in vivo at 100 mg/kg: Mus musculus, Swiss Albino, po, 3 h
Mus musculus [7] = assay: Inhibition of carrageenan-induced hind paw oedema in Swiss Albino mouse at 100 mg/kg, po after 270 mins relative to control; format: functional; conditions: for inhibition in vivo at 100 mg/kg: Mus musculus, Swiss Albino, po, 4.5 h
Mus musculus [8] = assay: Inhibition of carrageenan-induced hind paw oedema in Swiss Albino mouse at 100 mg/kg, po after 360 mins relative to control; format: functional; conditions: for inhibition in vivo at 100 mg/kg: Mus musculus, Swiss Albino, po, 6 h
Mus musculus [9] = assay: Inhibition of acetic acid-induced capillary permeability in Swiss Albino mouse at 100 mg/kg, po; format: functional
[10] = biological target: T2, Amine oxidase [flavin-containing] B; assay: Inhibition of rat liver MAOB
Mus musculus [11] = assay: Toxicity in Swiss Albino mouse assessed as ulcerogenic abdomen lesions at 100 mg/kg, po; format: organism-based; design: dose 100 mg/kg, route oral; conditions: in vivo
Mus musculus [12] = assay: Inhibition of carrageenan-induced hind paw oedema in Swiss Albino mouse at 100 mg/kg, po after 90 mins relative to control; format: functional; conditions: for inhibition in vivo at 100 mg/kg: Mus musculus, Swiss Albino, po, 1.5 h
Mus musculus [13] = assay: Inhibition of acetic acid-induced capillary permeability in Swiss Albino mouse at 10 mg/kg, po; conditions: read-out: Inhibition

| SMILES | IC50 [1] | IC50 [2] | Ki [3] | writhing count (Mus musculus [4]) | inhibition in vivo at 100 mg/kg (Mus musculus [5]) | inhibition in vivo at 100 mg/kg (Mus musculus [6]) | inhibition in vivo at 100 mg/kg (Mus musculus [7]) | inhibition in vivo at 100 mg/kg (Mus musculus [8]) | inhibition in vivo at 100 mg/kg (Mus musculus [9]) | Ki [10] | Activity (Mus musculus [11]) | inhibition in vivo at 100 mg/kg (Mus musculus [12]) | Activity (Mus musculus [4]) | Inhibition (Mus musculus [5]) | Inhibition (Mus musculus [12]) | Inhibition (Mus musculus [6]) | Inhibition (Mus musculus [7]) | Inhibition (Mus musculus [8]) | inhibition in vivo at 10 mg/kg (Mus musculus [13]) |
| --- | --- | --- | --- | --- | --- | --- | --- | --- | --- | --- | --- | --- | --- | --- | --- | --- | --- | --- | --- |
| CNC(=S)N1N=C(c2ccc(Cl)cc2)CC1c1ccc[nH]1 (stereo not drawn) | 11.2 µM | 416 µM | 13.2 µM | 37.8 writhings | 22.5% | 6.6% | 7.2% | 1.9% | 20.7% |  |  |  |  |  |  |  |  |  |  |
| COc1ccc(C2=NN(C(=S)Nc3ccccc3)C(c3ccc[nH]3)C2)cc1 (stereo not drawn) | 431 µM | 30.1 µM |  | 25.2 writhings | 48.4% | 22.6% | 16.5% | 21.6% | 22.3% | 37.1 µM | Non-toxic | 20.7% |  |  |  |  |  |  |  |
| CCNC(=S)N1N=C(c2ccc(OC)cc2)CC1c1ccc[nH]1 (stereo not drawn) | 400 µM | 22.1 µM |  | 21.2 writhings | 56.6% | 22.7% | 18.9% | 27.6% | 25.9% | 24 µM | Non-toxic | 23.2% |  |  |  |  |  |  |  |
| Cl.S=C(Nc1ccccc1)N1N=C(c2ccc(Cl)cc2)CC1c1ccc[nH]1 (stereo not drawn) | 59.3 µM | 441 µM | 60.8 µM |  |  |  |  |  |  |  | Non-toxic |  |  |  |  |  |  |  |  |
| CC(=O)Oc1ccccc1C(=O)O [ASPIRIN] |  |  |  |  | 54.3% |  |  |  |  |  |  |  | 22.3 |  |  |  |  |  |  |
| CCNC(=S)N1N=C(c2ccc(Cl)cc2)CC1c1ccc[nH]1 (stereo not drawn) | 20.2 µM | 450 µM | 26.9 µM | 21.5 writhings | 55.9% | 21.3% | 20.6% | 24% | 23.5% |  | Non-toxic | 16.1% |  |  |  |  |  |  |  |
| CCNC(=S)N1N=C(c2ccc(C)cc2)CC1c1ccc[nH]1 (stereo not drawn) | 329 µM | 369 µM |  | 41.3 writhings | 15.4% | 10.5% | 12.4% | 16.3% |  |  | Non-toxic | 4.9% |  |  |  |  |  |  |  |
| CCCNC(=S)N1N=C(c2ccc(OC)cc2)CC1c1ccc[nH]1 (stereo not drawn) | 409 µM | 29.1 µM |  | 19.5 writhings | 60% | 23.6% | 22.6% | 32.8% | 34.8% | 33.7 µM | Non-toxic | 20.3% |  |  |  |  |  |  |  |
| CNC(=S)N1N=C(c2ccc(C)cc2)CC1c1ccc[nH]1 (stereo not drawn) | 295 µM | 349 µM |  | 39.7 writhings | 18.6% | 11.2% | 12.2% | 16.3% |  |  | Non-toxic | 13.2% |  |  |  |  |  |  |  |
| CNC(=S)N1N=C(c2ccc(OC)cc2)CC1c1ccc[nH]1 (stereo not drawn) | 430 µM | 12.5 µM |  | 39.2 writhings | 19.7% | 14.7% | 10.5% | 17.7% |  | 12.5 µM | Non-toxic | 14.2% |  |  |  |  |  |  |  |
| Cc1ccc(C2=NN(C(=S)Nc3ccccc3)C(c3ccc[nH]3)C2)cc1 (stereo not drawn) | 300 µM | 351 µM |  | 45.2 writhings |  |  |  |  |  |  | Non-toxic |  |  | 7.4% | 9.1% | 13.1% | 6.1% | 11.8% |  |
| CCCNC(=S)N1N=C(c2ccc(C)cc2)CC1c1ccc[nH]1 (stereo not drawn) | 369 µM | 389 µM |  | 25.3 writhings | 48.2% | 20.9% | 15.7% | 22.7% |  |  | Non-toxic | 14.6% |  |  |  |  |  |  |  |
| CCCNC(=S)N1N=C(c2ccc(Cl)cc2)CC1c1ccc[nH]1 (stereo not drawn) | 29.2 µM | 421 µM | 33.2 µM | 20.5 writhings | 57.9% | 25.2% | 23.9% | 28.1% | 28.3% |  | Non-toxic | 19.8% |  |  |  |  |  |  |  |
| C#CCN(C)Cc1ccccc1 [PARGYLINE] | 390 µM | 2.85 µM |  |  |  |  |  |  |  |  |  |  |  |  |  |  |  |  |  |
| COc1ccc2c(c1)c(CC(=O)O)c(C)n2C(=O)c1ccc(Cl)cc1 [INDOMETHACIN] |  |  |  |  |  | 37.1% | 33.6% | 42.2% |  |  |  | 32.3% |  |  |  |  |  |  | 48.1% |
